We go through five compounds from PubChem BioAssay AID1963844 (Molecular Pharmacology Branch, DTP, NCI, 2024).

One may read the viability, T/C as the result in the treated group divided by that in the control group, in per cent. For orientation: IC50 means the concentration at which inhibition is half-maximal.

Values joined by “and” are separate entries in the source; they are usually repeats but may differ in a detail not shown here. Equal values may be shown once.

This experiment relates to 422866-222-R5-J1-PDC complex spheroid viability. Briefly: Anticancer human tumor 422866-222-R5-J1-PDC patient-derived pancreatic adenocarcinoma cell line growth inhibition [POLQ]. As to conditions: for viability, T/C: stronger effect = lower value. The procedure: Multicellular complex tumor spheroid response to Polymerase (POL) inhibitors (novobiocin, ART-558, RP6685) in combination with a variety of drugs and investigational agents in selected tumor cell lines
The POL inhibitors (novobiocin, ART-558, and RP6685) were evaluated both individually and in combination with standard of care and investigational anticancer small molecules within a complex spheroid model of solid tumors. . Complex spheroids include a stromal component modeled by human endothelial cells (HUVEC) and fibroblasts modeled by human mesenchymal stem cells (MSCs). The concentration ranges selected for each drug and investigational agent were based upon clinically achievable concentrations if the clinical Cmax of the agent was known.
Compounds. The drugs and investigational agents: novobiocin (NSC847541), ART-558 (NSC835418), RP-6685 (NSC848927), peposertib (NSC802822), ceralasertib (NSC780249), elimusertib (NSC800525), camonsertib (NSC841442), AZD-1390 (NSC803789), olaparib (NSC753686), talazoparib (NSC767125), rucaparib (NSC756644), sotorasib (NSC818433), MRTX-1133 (NSC836407), SN-38 (NSC673596), topotecan (NSC609699), epotoside (NSC141540), doxorubicin (NSC123127), gemcitabine (NSC613327), 5-fluorouracil (NSC19893), paclitaxel (NSC125973), vemurafenib (NSC761431), MSA-2 (NSC828583), SN-011 (NSC837082), adavosertib (NSC754352), prexasertib (NSC758257), carboplatin (NSC241240) and oxaliplatin (NSC266046), were obtained from the National Cancer Institute (NCI) Developmental Therapeutics Program Chemical Repository (21). The FDA-approved anticancer drug set is available from the Developmental Therapeutics Program at https://dtp.cancer.gov/organization/dscb/obtaining/. […] The stock solutions were prepared in dimethyl sulfoxide (DMSO, Sigma-Aldrich, St. Louis, MO, cat. D2650), except for the platinum compounds which were prepared in saline (Quality Biological, Gaithersburg, MD, cat. 114-055-101), at 800-fold the tested concentration and stored at -70 degrees C prior to their use. All drugs and investigational agents were tested over a range starting from a high concentration at or near the clinical Cmax and decreasing in half-log increments. If the clinical Cmax for an agent had not been determined, the highest concentration tested was 10 microM, except for SN-38, which was tested at a high concentration of 1 microM.
Cell Culture. All cells were maintained in an incubator at 37 degrees C and 5% CO2 with 95% humidity. The PDC lines were cultured according to standard operating procedures established by the NCI PDMR (https://pdmr.cancer.gov). Table 3 of the manuscript, lists the cell lines along with the number of the three cell types plated to form the mct-spheroids and media for tumor cell growth. After thawing, all PDC lines, except 997537-175-T-J1-PDC and 415267-285-R-J2-PDC, were cultured in Matrigel-coated flasks prepared with a working solution of 1X Ham's F-12 nutrient mix, without supplementation (Thermo Fisher Scientific, cat. 11765054), 100 U/mL penicillin-streptomycin (Thermo Fisher Scientific, cat. 15140122), and 2.5% Matrigel (Corning Inc., Corning, NY, cat. 354248) for the first three passages. The two PDC lines 997537-175-T-J1-PDC and 415267-285-R-J2-PDC were cultured on uncoated flasks. The 857933-349-R-J2-PDC line was cultured in 6C/Colon 1B media containing advanced DMEM/F-12 (Thermo Fisher Scientific, cat. 12634028), 10 mM HEPES (Thermo Fisher Scientific, cat. 15630080), 1X GlutaMAX supplement (Thermo Fisher Scientific, cat. 35050061), 0.1 mg/mL primocin (InvivoGen, San Diego, CA, cat. ant-pm-2), 10% defined fetal bovine serum, heat inactivated (HyClone Laboratories Inc., Logan, UT, cat. SH30070.03HI), 50% L-WRN conditioned media (ATCC, cat. CRL-3276), 1.25 mM N-Acetyl-L-cysteine (Sigma-Aldrich, cat. A9165), 10 mM nicotinamide (Sigma-Aldrich, cat. N0636), 1X B-27 supplement (Thermo Fisher Scientific, cat. 17504044), 1X N-2 supplement (Thermo Fisher Scientific, cat. […]

[1] abbreviates: curve of first compound, second compound 0.0316 µM.
The mark [2] stands for this setting: curve of first compound, second compound 0.1 µM.
[3] abbreviates: curve of first compound, second compound 0.316 µM.
[4] abbreviates: curve of first compound, second compound 1 µM.
Setting [5] is: curve of first compound, second compound 3.16 µM.
Setting [6] is: curve of first compound, second compound 10 µM.
[7] abbreviates: second compound 0.0316 µM, first compound 0.0316 µM.
Setting [8] is: second compound 0.0316 µM, first compound 0.1 µM.
Setting [9] is: second compound 0.0316 µM, first compound 0.316 µM.
Where [10] appears, read: second compound 0.0316 µM, first compound 1 µM.
[11] abbreviates: second compound 0.0316 µM, first compound 3.16 µM.
The mark [12] stands for this setting: second compound 0.0316 µM, first compound 10 µM.
Where [13] appears, read: second compound 0.1 µM, first compound 0.0316 µM.
The mark [14] stands for this setting: second compound 0.1 µM, first compound 0.1 µM.
Where [15] appears, read: second compound 0.1 µM, first compound 0.316 µM.
[16] abbreviates: second compound 0.1 µM, first compound 1 µM.
[17] abbreviates: second compound 0.1 µM, first compound 3.16 µM.
[18] abbreviates: second compound 0.1 µM, first compound 10 µM.
The mark [19] stands for this setting: second compound 0.316 µM, first compound 0.0316 µM.
Where [20] appears, read: second compound 0.316 µM, first compound 0.1 µM.
Setting [21] is: second compound 0.316 µM, first compound 0.316 µM.
The mark [22] stands for this setting: second compound 0.316 µM, first compound 1 µM.
Setting [23] is: second compound 0.316 µM, first compound 3.16 µM.
Where [24] appears, read: second compound 0.316 µM, first compound 10 µM.
The mark [25] stands for this setting: second compound 1 µM, first compound 0.0316 µM.
Where [26] appears, read: second compound 1 µM, first compound 0.1 µM.
[27] abbreviates: second compound 1 µM, first compound 0.316 µM.
Setting [28] is: second compound 1 µM, first compound 1 µM.
Setting [29] is: second compound 1 µM, first compound 3.16 µM.
The mark [30] stands for this setting: second compound 1 µM, first compound 10 µM.
[31] abbreviates: second compound 3.16 µM, first compound 0.0316 µM.
Where [32] appears, read: second compound 3.16 µM, first compound 0.1 µM.
Setting [33] is: second compound 3.16 µM, first compound 0.316 µM.
[34] abbreviates: second compound 3.16 µM, first compound 1 µM.
Where [35] appears, read: second compound 3.16 µM, first compound 3.16 µM.
[36] abbreviates: second compound 3.16 µM, first compound 10 µM.
Where [37] appears, read: second compound 10 µM, first compound 0.0316 µM.
Where [38] appears, read: second compound 10 µM, first compound 0.1 µM.
Setting [39] is: second compound 10 µM, first compound 0.316 µM.
The mark [40] stands for this setting: second compound 10 µM, first compound 1 µM.
Setting [41] is: second compound 10 µM, first compound 3.16 µM.
Where [42] appears, read: second compound 10 µM, first compound 10 µM.
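Also: spheroids exposed to compounds for one week before readout.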
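For viability, T/C in this document: percent of DMSO vehicle wells luminescence so 100% = untreated viability.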

With `CC[C@@]1(O)C(=O)OCc2c1cc1n(c2=O)Cc2cc3c(CN(C)C)c(O)ccc3nc2-1`, the viability, T/C was 104% and 91% and 103% (compound 0.000316 µM); 106% and 95.4% and 94.5% (compound 0.001 µM); 88% and 77% and 98.9% (compound 0.00316 µM); 70.4% and 68.2% and 68.5% (compound 0.01 µM); 48.4% and 37.3% and 41.3% (compound 0.0316 µM); 36% and 32.2% and 33.8% (compound 0.1 µM). The IC50 (curve of compound) is 0.0288 µM and 0.02 µM and 0.0211 µM.

On to `CCc1cc2c(N3CCc4c(cc(Cn5ccnc5)cc4-c4cn(C)nc4C(F)(F)F)C3=O)cc(C)nc2c(OC)n1`, for which the viability, T/C runs as follows: (compound 0.0316 µM) 89.5% and 92.6% and 79.2%; (compound 0.1 µM) 93.5% and 80.2% and 93.8%; (compound 0.316 µM) 96.5% and 104% and 95.6%; (compound 1 µM) 120% and 102% and 96.1%; (compound 10 µM) 109% and 99.8% and 115%. Also, the 50% inhibitory concentration (IC50) (curve of compound) is over 10 µM.

In the case of `COc1cccc(OCCCN)c1-c1cc(Nc2cnc(C#N)cn2)n[nH]1`, the viability, T/C (compound 0.00316 µM) is 61.5% and 71.1% and 79.5%; the viability, T/C (compound 0.01 µM) is 37.6% and 43.8% and 38%; the viability, T/C (compound 0.0316 µM) was 38.3% and 35% and 28.3%; the viability, T/C (compound 0.1 µM) was 38.7% and 31.6% and 31.1%; the viability, T/C (compound 0.316 µM) was 34% and 37.7% and 24.6%; the viability, T/C (compound 1 µM) was 35.8% and 33.7% and 48.9%. For the setting “curve of compound”, the half-inhibitory concentration (IC50) is 0.00556 µM and 0.00754 µM and 0.00707 µM.

On to `O=C(c1cc(Cc2n[nH]c(=O)c3ccccc23)ccc1F)N1CCN(C(=O)C2CC2)CC1` + Cc1cccc(N(C)C(=O)C2C(O)CCN2c2nc(C)cc(C(F)(F)F)c2C#N)c1, for which the IC50 by setting is: under setting [1], over 10 µM; under setting [2], over 10 µM; under setting [3], over 10 µM; under setting [4], over 10 µM; under setting [5], over 10 µM; under setting [6], over 10 µM. Moreover, the viability, T/C by setting is: under setting [7], 87.5%; under setting [8], 103%; under setting [9], 89.9%; under setting [10], 92.9%; under setting [11], 89.7%; under setting [12], 68.2%. The viability, T/C under setting [13] was 95.3%; the viability, T/C under setting [14] was determined as 104%; the viability, T/C under setting [15] was found to be 99%; the viability, T/C under setting [16] worked out at 87.4%; the viability, T/C under setting [17] amounted to 87.5%; the viability, T/C under setting [18] worked out at 81.7%. Also, the viability, T/C stood at 117% under setting [19]; 95.9% under setting [20]; 107% under setting [21]; 97.6% under setting [22]; 97.5% under setting [23]; 67.3% under setting [24]. Also, the viability, T/C reads like this: under setting [25], 96.2%; under setting [26], 94.4%; under setting [27], 86%; under setting [28], 90.5%; under setting [29], 82.2%; under setting [30], 68%. The viability, T/C was 87.3% under setting [31]; 104% under setting [32]; 104% under setting [33]; 107% under setting [34]; 86.1% under setting [35]; 68% under setting [36]. For the same compound, the viability, T/C came out at 104% under setting [37]; 107% under setting [38]; 97.7% under setting [39]; 89.8% under setting [40]; 80.3% under setting [41]; 76.4% under setting [42].

Regarding `O=c1[nH]cc(F)c(=O)[nH]1` + Nc1ccc(C#CCN(C(=O)Cc2ncc(C(F)(F)F)cc2C(F)(F)F)c2ccc(F)cc2)nn1, the concentration for half-maximal inhibition (IC50) runs as follows: under setting [1], over 10 µM; under setting [2], over 10 µM; under setting [3], over 10 µM; under setting [4], over 10 µM; under setting [5], over 10 µM; under setting [6], over 10 µM. Moreover, the viability, T/C worked out at 108% under setting [7]; 102% under setting [8]; 89.4% under setting [9]; 88.2% under setting [10]; 89.1% under setting [11]; 79.3% under setting [12]. Besides, the viability, T/C under setting [13] stood at 113%; the viability, T/C under setting [14] turned out to be 90.9%; the viability, T/C under setting [15] is 92.4%; the viability, T/C under setting [16] came to 96.2%; the viability, T/C under setting [17] amounted to 83.2%; the viability, T/C under setting [18] came out at 76.7%. Further, the viability, T/C by setting is: under setting [19], 99.2%; under setting [20], 106%; under setting [21], 100%; under setting [22], 93.4%; under setting [23], 75.9%; under setting [24], 84.7%. Besides, the viability, T/C was determined as 101% under setting [25]; 111% under setting [26]; 108% under setting [27]; 92.4% under setting [28]; 90.1% under setting [29]; 83.4% under setting [30]. The viability, T/C under setting [31] is 95%; the viability, T/C under setting [32] is 132%; the viability, T/C under setting [33] is 102%; the viability, T/C under setting [34] came to 104%; the viability, T/C under setting [35] was 88.3%; the viability, T/C under setting [36] was 82.6%. For the same compound, the viability, T/C is, setting by setting: under setting [37], 101%; under setting [38], 118%; under setting [39], 97.1%; under setting [40], 100%; under setting [41], 78.3%; under setting [42], 83.8%.
